# Measurements taken from patent US10682360B2, “Antimicrobial formulations and applications thereof” (priority 2014, dated 2020).
# Tests used:
# [1] = tested on: Staphylococcus aureus 33592 (MRSA); assay: ASTM E2315 suspension time-kill procedure; format: cell-based; conditions: contact time 2 hours; for CFU/mL / % Reduction / Log10 reduction: S. aureus 33592; for % Reduction / Log10 reduction: vs time zero control
# Method: (§1) Efficacy of these substances, alone and in combination, was tested against two strains of bacteria using the ASTM E2315 test method.
# (2) Staphylococcus aureus 33592 (MRSA): This is a Gram-positive, coccus-shaped aerobe that is resistant to methicillin, a penicillin derivative. Rapid reproduction and resistance to antibiotics can make S. aureus infections particularly difficult to treat. MRSA bacteria are resistant to drying and can survive on surfaces and fabrics for an extended period of time.
# (§2) ASTM E2315 is a quantitative test method designed to assess changes in the populations of a microorganism in an antimicrobial liquid suspension. The method can be conducted using contact times ranging from 10 seconds to 24 hours. The test method uses non-antimicrobial agents as controls to establish baselines for microbial reductions.
# (§3) Test microorganisms were prepared in liquid culture medium. Suspensions of test microorganisms were standardized as needed by dilution in a buffered saline solution. Test and control substances were dispensed in identical volumes to sterile vessels.
# (§4) Independently, test and control substances were inoculated with each test microorganism, then mixed and incubated. Control substances were immediately harvested and used to represent the concentration present at the start of the test.
# (§5) At the conclusion of the contact time, a volume of liquid test solution was harvested and chemically neutralized. Test microorganisms were spun down and the cell pellet was resuspended in phosphate buffered saline (PBS) prior to inoculation of the test systems. 10 mL volumes of Dey/Engley neutralizer broth supplemented with 5% magnesium chloride and 35% polysorbate 80 were used for chemical neutralization. After chemical neutralization, test systems were filtered using a filtration manifold to recover surviving microorganisms.
# (§6) Dilutions of neutralized test solution were assayed using appropriate growth media to determine surviving microorganism levels at each respective contact time. Reductions of microorganisms were calculated by comparing initial microbial concentrations to final microbial concentrations. The limit of detection for the assay was 10 CFU/mL.
# (§7) Percent reduction of bacterial population was calculated according to the following equation, where A=number of viable test microorganisms in the test substance after the contact time and B=number of viable test microorganisms in the control substance immediately after inoculation. Log10 reduction was also calculated.
# (§8) The experimental procedure of Example 1 was followed with the exception of substitutions of some antibiotics. Cefuroxime (a second generation cephalosporin) and/or ceftazidime (a third generation cephalosporin active against P. aeruginosa) were used to replace cefazolin.
# [2] = tested on: Pseudomonas aeruginosa 9027; assay: ASTM E2315 suspension time-kill procedure; format: cell-based; conditions: P. aeruginosa 9027, contact time 2 hours; for % Reduction / Log10 reduction: vs time zero control
# Method: as §1
# (1) Pseudomonas aeruginosa 9027: This is a Gram-negative, rod-shaped microorganism with a single flagellum. P. aeruginosa grows optimally under aerobic conditions but can use various electron acceptors to respire anaerobically as needed. This organism is an opportunistic pathogen with the ability to form resilient biofilms in human tissues under anaerobic conditions.
# as §2, §3, §4, §5, §6, §7, §8
# [3] = Example 2, time zero control 3.35 × 10^7 CFU/mL
compound,measurement,setting,value
"Cc1nnc(SCC2=C(C(=O)O)N3C(=O)[C@@H](NC(=O)Cn4cnnn4)[C@H]3SC2)s1 [Test 1, Cefazolin]",CFU/mL,"[1]; Example 1, time zero control 2.85 × 10^6 CFU/mL, ambient 25° C.",1.44 × 10^5 CFU/mL
same,% Reduction,[1]; Example 1,94.96%
same,Log10 reduction,[1]; Example 1,1.30
"CO/N=C(\C(=O)N[C@@H]1C(=O)N2C(C(=O)O)=C(COC(N)=O)CS[C@H]12)c1ccco1 [Test 8, Cefuroxime]",CFU/mL,"[1]; Example 2, time zero control 1.75 × 10^6 CFU/mL",1.50 × 10^6 CFU/mL
same,% Reduction,[1]; Example 2,14.29%
same,Log10 reduction,[1]; Example 2,0.07
same,"antibacterial effect / interaction of the antibiotics, in words",[1]; S. aureus 33592 (MRSA),"less activity against MRSA than the first generation cephalosporin, cefazolin"
"CO/N=C(\C(=O)N[C@@H]1C(=O)N2C(C(=O)O)=C(COC(N)=O)CS[C@H]12)c1ccco1 [Test 12, Cefuroxime]",CFU/mL,[2]; [3],2.00 × 10^5 CFU/mL
same,% Reduction,[2]; Example 2,99.44%
same,Log10 reduction,[2]; Example 2,2.25
same,"antibacterial effect / interaction of the antibiotics, in words",[2],bactericidal
Polymyxin B [Test 5],CFU/mL,"[2]; Example 1, time zero control 1.80 × 10^6 CFU/mL, limit of detection 10 CFU/mL",<1.00 × 10^1 CFU/mL
same,% Reduction,[2]; Example 1,>99.9996%
same,Log10 reduction,[2]; Example 1,>5.45
same,"antibacterial effect / interaction of the antibiotics, in words",[2],essentially complete elimination
Polymyxin B [Test 11],CFU/mL,[2]; [3],1.00 × 10^3 CFU/mL
same,% Reduction,[2]; Example 2,99.997%
same,Log10 reduction,[2]; Example 2,4.55
